Laboratory results reported in paper PMC5146284, “Molecular imaging with engineered physiology” (Nature Communications, 2016).

Columns and labels:
[1] = tested on: enterokinase (EK) light chain; experiment: Proteolytic cleavage by enterokinase light chain (SDS-PAGE); format: biochemical; settings: 10 µM sensor, 2 h, 37 °C, different EK concentrations
Experimental: (§1) Proteolytic cleavage reactions
(§2) Supplementary Fig. 4. Proteolytic cleavage of candidate sensors and assessment by bioas-say. (a-e) Cleavage reaction products after incubation of 10 µM sensor with or without enzyme for 2 h at 37 °C. (a) MALDI mass spectrum of sensor (1) after incubation with or without FAP […]
(§3) (b) SDS-PAGE analysis of sensor
(§4) (c) SDS-PAGE analysis of sensor (3) after incubation with different concentrations of EK light […]
(§5) (d) SDS-PAGE analysis of sen- […]
(§6) and liberation of free CGRP. (f-k) Dose-response curves of uncleaved and cleaved sensors in […]
(§7) (f) Dose-response curves for Sensors (2-4) at final assay concentrations up to 10 uM (addition of 10 µL of 100 µM solution to 90 µL medium per well in bioassay) show no receptor activation by uncleaved GFP-linker-CGRP-G sensors even at 10-fold higher concentrations than were used in cleavage assays (g-k). (g-k) Dose-response curves for reaction products from (a-e). Error bars in (f-k) denote SD of measurements performed in triplicate.
(§8) (1 picture or pasted object on this page, not shown here)

rat brain (thalamus) = experiment: MRI of haemodynamic response to intracranial CGRP infusion; format: in vivo, rat (Sprague-Dawley); settings: inferred from MRI time course during intracranial infusion
Description: Haemodynamic contrast provided sufficient resolution to monitor convective spread of the imaging agent from the site of infusion (Supplementary Fig. 1b).
Magnetic resonance imaging
Nineteen Sprague-Dawley rats were used for in vivo MRI experiments. […]
Animals were scanned by MRI to measure the changes in haemodynamic contrast following intracranial injections. […] Breathing rate and end-tidal expired isoflurane were continuously monitored. […]
Signals were averaged over six animals in 1.5 mm square regions of interest (ROIs) positioned around the infusion cannulae tips in each animal (cf. Fig. 2d); gray shading denotes standard errors as a function of time. (b) Time courses from multiple approximately concentric ROIs (diagrammed at left) were analyzed to determine whether hemodynamic MRI has sufficient spatial resolution to monitor convection of CGRP from the infusion site. For each ROI, the delay between the start of infusion and the ob-servation of statistically significant signal changes from baseline was measured (color coded bars at right). […]

TEV protease = experiment: Proteolytic cleavage by TEV protease (SDS-PAGE); format: biochemical; settings: 10 µM sensor, 2 h, 37 °C
Experimental: as §1, §2, §3, §4, §5, §6, §7, §8

## cfSGFP2-DDDDK-CGRP-G [Sensor (3), recombinant fusion of cysteine-free GFP, a short linker, enterokinase site and non-amidated CGRP]
[1]
  cleavage by EK light chain: increasing cleavage with increasing concentrations

## CC(C)C[C@H](NC(=O)CNC(=O)[C@H](C)NC(=O)[C@H](CC(C)C)NC(=O)[C@H](CCCNC(=N)N)NC(=O)[C@H](Cc1cnc[nH]1)NC(=O)[C@@H](NC(=O)[C@@H](NC(=O)[C@@H]1CSSC[C@H](NC(=O)[C@H](C)N)C(=O)N[C@@H](CC(=O)O)C(=O)N[C@@H]([C@@H](C)O)C(=O)N[C@@H](C)C(=O)N[C@@H]([C@@H](C)O)C(=O)N1)C(C)C)[C@@H](C)O)C(=O)N[C@@H](CC(C)C)C(=O)N[C@@H](CO)C(=O)N[C@@H](CCCNC(=N)N)C(=O)N[C@@H](CO)C(=O)NCC(=O)NCC(=O)N[C@H](C(=O)N[C@H](C(=O)N[C@@H](CCCCN)C(=O)N[C@@H](CC(N)=O)C(=O)N[C@@H](CC(N)=O)C(=O)N[C@@H](Cc1ccccc1)C(=O)N[C@H](C(=O)N1CCC[C@H]1C(=O)N[C@H](C(=O)N[C@@H](CC(N)=O)C(=O)N[C@H](C(=O)NCC(=O)N[C@@H](CO)C(=O)N[C@@H](CCCCN)C(=O)N[C@@H](C)C(=O)N[C@@H](Cc1ccccc1)C(N)=O)C(C)C)[C@@H](C)O)C(C)C)C(C)C)C(C)C [wtCGRP, calcitonin gene-related peptide]
Rat brain (thalamus)
  removal or degradation in brain tissue: not rapidly removed or degraded in brain tissue

## cfSGFP2-ENLYFQG-CGRP-G [Sensor (2), recombinant fusion of cysteine-free GFP, a short linker, TEV protease site and non-amidated CGRP]
TEV protease
  cleavage by TEV protease: substantial but not complete cleavage
